The subject of the series is Human umbilical vein endothelial cells (HUVECs). The series can be described thus: Cell viability by CCK-8 assay. Type of series: cell-based. To be noted: 24 h, NapFF 10.0-200.0 μM, silk fibroin 0.1-2.0%, FIG. 9. The procedure: The cell viability was detected by CCK-8 assay. Human umbilical vein endothelial cells (HUVECs) were dispersed in a 96-well plate (at a cell concentration of 4000 cells/well) and cultured for 24 h in a 5% CO2 atmosphere at 37° C. The previous medium was replaced with a medium containing different concentrations of NapFF (10.0 μM, 20.0 μM, 50.0 μM, 100.0 μM, and 200.0 μM) and silk fibroin solutions (0.1%, 0.2%, 0.5%, 1.0%, and 2.0%), which was in turn replaced with a CCK-8 solution after 24 h. Finally, the optical density value (OD value) of the solution at 450 nm was measured on a microplate reader. The cell viability is expressed as percentage of the number of control (untreated) cells. The cell viability of the control group was set to 100% by default, and all experiments were performed in 5 replications.

For `O=C(Cc1ccc2ccccc2c1)N[C@@H](Cc1ccccc1)C(=O)N[C@@H](Cc1ccccc1)C(=O)O` [NapFF, 2-naphthaleneacetic acid-phenylalanine-phenylalanine], the “Cytotoxicity (cell viability, CCK-8)” value was “good biocompatibility”.

These data come from patent US11560455B2, “Method for rapid gelation of silk fibroin solution under physiological conditions” (SOOCHOW UNIVERSITY, priority 2017, dated 2023).
